Data on two molecules can be found in patent publication US20200405867A1, “ORAL DOSAGE FORMS” (Sunovion Pharmaceuticals Inc., priority 2018, published 2020).

Counter-ions that a name gives are not always drawn. Like-named read-outs stand apart in the source and are kept apart here.

Data set [1] in a line: physchem. Format: physicochemical. From the text: To make a solution, one must attain sufficient solubility to achieve efficacious levels of an active pharmaceutical ingredient (API) while avoiding precipitation.
The format of data set [2] is physicochemical. The text has this:
In addition to chemical/physical stability, the formulation must remain free of microbial growth for commercially reasonable periods. Several common preservatives failed when combined with dasotraline HCl and malate buffer.

Data set [3] is classed as physicochemical. The conditions noted are these: for impurities: four weeks. The text has this:
A solution must be stable for commercially reasonable periods. […] In experimenting with buffering agents such as tartrate and citrate, precipitation of dasotraline HCl was discovered.

For data set [4] the following is noted: capsule, doses of 1 to 8 mg, adult or adolescent; cited from earlier work.

A word on the solubility: it is the dissolved amount per volume that the medium holds. Low values mean a poorly soluble substance, high ones a readily soluble substance. Regarding `N[C@@H]1CC[C@@H](c2ccc(Cl)c(Cl)c2)c2ccccc21` [dasotraline HCl], in data set [1], the “pH window of maximal solubility in water” value is listed as 2.0-3.0 pH. Further, the solubility came to 1900 µg/mL in data set [1] (pH 2.2, aqueous buffer); 2200 µg/mL in data set [1] (pH 2.7, aqueous buffer); 2100 µg/mL in data set [1] (pH 3, aqueous buffer); 1300 µg/mL in data set [1] (pH 3.4, aqueous buffer); 800 µg/mL in data set [1] (pH 3.9, aqueous buffer); 600 µg/mL in data set [1] (pH 4.4, aqueous buffer). In data set [1] (pH 4.9, aqueous buffer), this molecule showed a solubility of 400 µg/mL. The “physical stability of solution” value is reported as “induced precipitation” in data set [2], “precipitation” in data set [3] (pH 3), “precipitation” in data set [3] (pH 3.5) and “precipitation” in data set [3] (pH 5). The stability of solution result in data set [2] was “stable solution under all conditions tested”; in data set [2] (4 weeks), “effective up to four weeks at 60 °C”. Further, the impurities in data set [2] (malate buffer, 5% propylene glycol, further stress beyond four weeks at 60° C.) was above 0.1%; in data set [3] (10 mM malate buffer, pH≤3.5, 60° C.) it was “no detectable impurities”; in data set [3] (higher (25 mM) malate buffer amount, pH>3, 60° C.) it was above 0.1%.

`N[C@@H]1CC[C@@H](c2ccc(Cl)c(Cl)c2)c2ccccc21` [dasotraline, (1R,4S)-4-(3,4-dichlorophenyl)-1,2,3,4-tetrahydronaphthalen-1-amine]: in data set [4], the abuse liability result is listed as “no detectable abuse liability” and the “efficacy in treating ADHD” value was “effective in treating ADHD”.
